Experiment [1] relates to SASP factors. Description: SASP factor expression (qRT-PCR) and secretion (antibody array) in UPK10 cells. It counts as cell-based, mouse. As to the method: UPK10 and ID8 cells were treated with […], or a combination for three days. The drugs were then released from drug treatment and cultured for three days or extended period as indicated. The senescent cells were labelled with SPiDER-0 Gal Cellular Senescence Detection Kit (Dojindo, Cat. No: SG02-10) following the manufacture's instruction. Both senescent and non-senescent cells were sorted using flow cytometry. Mouse Cytokine Array C1 kit (RayBiotech. Cat. No: AAM-CYT-1-2) was used for cytokine analysis following the manufacturer's guidelines. Briefly, cells were washed once and cultured in serum-free medium for 48 hrs. Conditioned medium was filtered (0.2 μm) and then subjected to cytokine-array analysis. After collection of conditional media, the cell number of each sample was counted. The intensities of array dots were visualized on film after incubation with SuperSignal West Pico PLUS Chemiluminescent Substrate (Thermo Fisher Scientific. Cat. No: 34580). The integrated density was measured using Image J and normalized to the cell number from which the conditioned medium was generated. Total RNA was isolated using Trizol (Invitrogen) according to the manufacturer's instruction. Extracted RNAs were used for reverse-transcriptase PCR (RT-PCR) with High-Capacity cDNA Reverse Transcription Kit (Thermo fisher, Cat. No: 4368814). Quantitative PCR (qPCR) was performed using iTaq™ Universal SYBR® Green Supermix (BIO-RAD, Cat. No: 1725121) and QuantStudio 3 Real-Time PCR System.

Experiment [2] concerns ID8-Defb29/Vegf-a cells. Kind of experiment: Cisplatin-induced senescence, SA-β-gal staining of ID8-Defb29/Vegf-a cells. It counts as cell-based, mouse. To be noted: 2 μM Cisplatin for 48 hours. As to the method: For oncogene-induced senescence, IMR90 cells were infected with retrovirus produced by pBABE-puro-H-RAS^G12V (Addgene) at 37° C. for 24 hr. A second round of infection was performed on the same target cells. Infected cells were drug-selected using 3 μg/ml puromycin (Nacarelli et al., 2019). For Etoposide-induced senescence, IMR90 or OVCAR3 cells at approximately 60-70% confluency were treated with 50 μM or 2 μM Etoposide for 48 hours. The treated cells were cultured in fresh medium and harvested at day 8. For Cisplatin-induced senescence, OVCAR3 or ID8-Defb29/Vegf-a cells at approximately 60-70% confluency were treated with 2 μM Cisplatin for 48 hours. The treated cells were cultured in fresh medium and harvested at day 8.
(§1) SA-β-Gal staining was performed as previously described (Nacarelli et al., 2019). Briefly, cells were fixed for 5 mins at room temperature in 2% formaldehyde/0.2 glutaraldehyde in PBS. After washing twice with PBS, cells were stained at 37° C. overnight in a non-CO2 incubator in staining solution (40 mM Na2HPO4, pH 6.0, 150 mM NaCl, 2 mM MgCl2, 5 mM K3Fe(CN)6, 5 mM K4Fe(CN)6, and 1 mg/ml X-gal. After counterstaining with Nuclear Fast Red solution (Ricca, Cat. No: R5463200500), slides were subjected to an alcohol dehydration series and mounted with Permount (FisherScientific. Cat. No: SP15-100). Slides were examined using a Zeiss AxioImager A2.

For experiment [3], the system named is UPK10 cells. Description: Senescence induction in UPK10 cells (SA-β-Gal, SPiDER SA-β-Gal, immunoblot). It counts as cell-based, mouse. As for the experimental part: as §1
(§2) UPK10 and ID8 cells were treated with […], or a combination for three days. The drugs were then released from drug treatment and cultured for three days or extended period as indicated. The senescent cells were labelled with SPiDER-0 Gal Cellular Senescence Detection Kit (Dojindo, Cat. No: SG02-10) following the manufacture's instruction. Both senescent and non-senescent cells were sorted using flow cytometry.
(§3) Cells were lysed in 1× sample buffer (2% SDS, 10% glycerol, 0.01% bromophenol blue, 62.5 mM Tris, pH 6.8, and 0.1 M DTT) and heated to 95° C. for 10 min. Protein concentrations were determined using the protein assay dye (Bio-Rad. Cat. No: #5000006) and Nanodrop. An equal amount of total protein was resolved using SDS-PAGE gels and transferred to PVDF membranes at 110 V for 2 hours at 4° C. Membranes were blocked with 5% nonfat milk in TBS containing 0.1% Tween 20 (TBS-T) for 1 hour at room temperature. Membranes were incubated overnight at 4° C. in the primary antibodies in 4% BSA/TBS+0.025% sodium azide. Membranes were washed four times in TBS-T for 5 min at room temperature, after which they were incubated with HRP-conjugated secondary antibodies (Cell Signaling Technology. Cat. No: 7076S, 7074S) for 1 hour at room temperature. After washing four times in TBS-T for 5 min at room temperature, proteins were visualized on film after incubation with SuperSignal West Pico PLUS Chemiluminescent Substrate (Thermo Fisher Scientific. Cat. No: 34580).
In general terms: In western blotting, separated proteins are transferred to a membrane and probed.

In experiment [4] the test system is SASP factors. Description: SASP factor expression by qRT-PCR in ID8 cells. The experiment is classed as cell-based, mouse. As to the method: UPK10 and ID8 cells were treated with […], or a combination for three days. The drugs were then released from drug treatment and cultured for three days or extended period as indicated. The senescent cells were labelled with SPiDER-0 Gal Cellular Senescence Detection Kit (Dojindo, Cat. No: SG02-10) following the manufacture's instruction. Both senescent and non-senescent cells were sorted using flow cytometry. Total RNA was isolated using Trizol (Invitrogen) according to the manufacturer's instruction. Extracted RNAs were used for reverse-transcriptase PCR (RT-PCR) with High-Capacity cDNA Reverse Transcription Kit (Thermo fisher, Cat. No: 4368814). Quantitative PCR (qPCR) was performed using iTaq™ Universal SYBR® Green Supermix (BIO-RAD, Cat. No: 1725121) and QuantStudio 3 Real-Time PCR System.

The target of experiment [5] is T1, TOP1cc (Mus musculus, UniProt Q04750).
T1 construct: endogenous in cells; host or cells: UPK10 mouse ovarian cancer cells, sorted senescent and non-senescent fractions
T1 sequence (Q04750 1-767): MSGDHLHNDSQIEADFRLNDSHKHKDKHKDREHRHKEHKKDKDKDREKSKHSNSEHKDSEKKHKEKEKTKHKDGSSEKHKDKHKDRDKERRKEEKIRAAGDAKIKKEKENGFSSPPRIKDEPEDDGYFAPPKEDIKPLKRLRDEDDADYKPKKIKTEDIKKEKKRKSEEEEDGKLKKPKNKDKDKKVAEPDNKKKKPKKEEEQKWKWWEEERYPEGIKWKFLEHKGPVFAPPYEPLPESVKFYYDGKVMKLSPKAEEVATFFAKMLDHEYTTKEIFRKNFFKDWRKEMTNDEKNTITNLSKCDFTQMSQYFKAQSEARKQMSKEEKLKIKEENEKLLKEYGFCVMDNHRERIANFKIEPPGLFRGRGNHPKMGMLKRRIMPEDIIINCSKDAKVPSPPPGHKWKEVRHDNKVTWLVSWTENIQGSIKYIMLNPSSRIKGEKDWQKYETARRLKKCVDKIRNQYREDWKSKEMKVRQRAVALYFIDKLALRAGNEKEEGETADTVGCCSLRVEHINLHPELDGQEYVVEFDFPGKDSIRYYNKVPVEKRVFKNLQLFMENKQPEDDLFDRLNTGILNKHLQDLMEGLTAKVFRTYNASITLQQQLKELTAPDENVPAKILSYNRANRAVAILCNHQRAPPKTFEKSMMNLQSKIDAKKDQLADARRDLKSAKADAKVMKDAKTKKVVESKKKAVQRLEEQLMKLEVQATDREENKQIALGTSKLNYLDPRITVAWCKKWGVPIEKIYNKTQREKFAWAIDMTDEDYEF
Description: Immunoblot of TOP1cc and SASP regulators in sorted UPK10 cells. It counts as cell-based. As to the method: as §2, §3
• anti-Topoisomerase I-DNA Covalent Complexes (TOP1cc) (clone 1.1A) (Millipore. Cat. No: MABE1084), 1:1000 for slot blot • anti-TOP1 (Proteintech. Cat. No: 20705-1-AP), 1:1000 for immunoblotting • anti-cGAS (D9) (Santa Cruz. Cat. No: sc-515777), 1:1000 for immunoblotting; • anti-Cyclin A (H432) (Santa Cruz. Cat. No: sc-751), 1:1000 for immunoblotting; • anti-βactin (Sigma. Cat. No: A2228), 1:10000 for immunoblotting.

Setting [6] is: cisplatin three days, three days of release.

With `Cc1ccc2c(=O)c3cccc(CC(=O)O)c3oc2c1C` [DMXAA], the “SASP factor levels compared with senescent cells sorted from cisplatin and irinotecan combination treatment” value in experiment [1] (UPK10 cells) is on record as “significantly lower levels”. In experiment [1] (UPK10 cells, DMXAA as control), the “expression and secretion of SASP factors” value is “sufficient to increase the expression and secretion of SASP factors”.

Regarding `N.N.[Cl][Pt][Cl]` [cisplatin, Cisplatin], the “concentration chosen on optimal induction of SASP factors IL1β, IL8, CXCL10 in a dose-titration study” value in experiment [1] (UPK10 cells) amounted to 10 µM. Also, in experiment [2], the “treated cells in which senescence was induced” value is on record as approximately 100%. In addition, in experiment [3] (setting [6]), the “cell proliferation marker cyclin A” value is given as “decrease in cell proliferation marker cyclin A”; the “markers of senescence (SA-β-Gal activity, p16, γH2AX)” value was “induction of markers of senescence including senescence-associated β-galactosidase (SA-β-Gal) activity, p16 and γH2AX”.

As to `CCc1c2c(nc3ccc(OC(=O)N4CCC(N5CCCCC5)CC4)cc13)-c1cc3c(c(=O)n1C2)COC(=O)[C@]3(O)CC` [irinotecan], the “SASP expression in cisplatin-induced senescent ID8 cells” value in experiment [4] is reported as “boosts SASP expression”. In addition, the “TOP1cc levels in sorted senescent cells” value in experiment [5] (compared with cisplatin-induced senescent cells, UPK10) is given as “increased by irinotecan addition”. Further, the “TOP1cc levels in sorted non-senescent cells” value in experiment [5] (compared with vehicle control treated non-senescent cells, UPK10) was “notably higher”. The “SASP regulators phospho-p65 NF-κB and phosphor-p38 MAPK” value in experiment [5] (sorted senescent UPK10 cells) is “increase in SASP regulators such as phospho-p65 NF-κB and phosphor-p38 MAPK”. Also, the “expression of SASP factors at the mRNA levels (qRT-PCR)” value in experiment [1] (sorted senescent UPK10 cells induced by cisplatin) is given as “significantly increased the expression of SASP factors”. The “percentage of senescent cells induced by cisplatin with or without irinotecan (SPiDER SA-β-Gal)” value in experiment [3] is listed as “comparable”. For the same compound, the “SA-β-Gal activity (SPiDER)” value in experiment [3] (irinotecan alone) is reported as “also induced SA-β-Gal activity”.

The record behind these values is US20230082929A1, “METHODS OF GENERATING AND USING SENESCENT-INDUCED CELLS FOR TREATMENT OF CANCER AND COMPOSITIONS RELATING THERETO” (The Wistar Institute of Anatomy and Biology, priority 2020, published 2023).
